Assay results: article PMC7349888, “Synthesis and Evaluation of Dodecaboranethiol Containing Kojic Acid (KA-BSH) as a Novel Agent for Boron Neutron Capture Therapy” (Cells, 2020)

What was measured:
Format in all cases: cell-based
[1] = system: F98 rat glioma cells; assay: In vitro 10B uptake in F98 cells (ICP-AES); settings: 24 h incubation in DMEM with 1 mM boron compound
Procedure: (§1) For the in vitro ^10B uptake study, B16 mouse melanoma cells, C6 rat glioma cells, and F98 rat glioma cells were used. B16 and C6 cells were used for in vitro testing at Osaka Prefecture University. Based on results from initial in vitro screening, the in vitro ^10B uptake study using F98 glioma cells were performed at Osaka Medical College. Four hundred thousand cells were seeded in a tissue culture dish (100 × 20 mm; Becton Dickinson, Franklin Lakes, NJ, USA) with DMEM supplemented with 10% FBS and 10% penicillin and streptomycin at 37 °C in a 5% CO2 atmosphere. After incubation for 4 days at 37 °C, the medium was removed, and DMEM with 10% FBS containing 1 mM KA-BSH, BSH, or BPA was added to each dish. The cells were incubated for an additional 24 h at 37 °C. The medium was then removed, and the cells were washed twice with 4 °C phosphate-buffered saline (PBS) and detached with trypsin–ethylenediamine tetraacetic acid solution. PBS was then added, and cells were digested overnight with 1 N nitric acid solution (Wako Pure Chemical Industries, Osaka, Japan), and ^10B uptake was determined by inductively coupled plasma atomic emission spectrometry (ICP-AES) using an iCAP6000 emission spectrometer (Hitachi High-Technologies, Tokyo, Japan).

[2] = system: F98 rat glioma cells; assay: Cell viability assay (WST-8) in F98 cells; settings: WST-8 test, read-out: IC50 (cytotoxicity)
Procedure: The cytotoxicity of KA-BSH was assayed using the water soluble tetrazolium (WST)-8 assay with a cell-counting kit (Wako Pure Chemicals, Osaka, Japan) following a modified version of the manufacturer-provided protocols. Relative cell survival was calculated according to Equation (1):(1) Relative cell survival (%)=absorbance value of compound treated well/absorbance value of untreated well×100

[3] = system: B16 mouse melanoma cells; assay: In vitro boron uptake in B16 cells; settings: Figure S1
Procedure: as §1

**Q.** “S-(2-(5-hydroxy-4-oxo-4H-pyran-2-yl) methyl) Thioundecahydro-Closo- Dodecaborate (2-) Disodium Salt [KA-BSH]” was tested. Which “10B concentration of F98 rat glioma cells” value [1] did it give?
**A.** 0.821 ± 0.047 µg 10B/10^7 cells

**Q.** And the IC50 [2]?
**A.** 10.4 mM

**Q.** And the “boron uptake into cancer cells” value [3]?
**A.** taken up into cancer cells
